Article PMC6434189, “Peperomin E and its orally bioavailable analog induce oxidative stress-mediated apoptosis of acute myeloid leukemia progenitor cells by targeting thioredoxin reductase” (Redox Biology, 2019)

Legend:
[1] = system: NBM CD34+ (including hBMSCs) cells; assay: Release study of DMAPE in vitro, NBM CD34+ cells (UFLC-MS/MS); type: in vitro ADME, human; conditions: 10 μM DMAPE, 24 h
Procedure: 1 × 10^5 cells (including sorted CD34^+ KG-1a cells and NBM cells) were seeded at 48-well plates (Corning, New York, USA) in the IMDM-based serum-free media for 1 h. The cells were then incubated with 10 μM DMAPE at 37 °C in the 5% CO2 incubator for 0, 12 or 24 h. The culture supernatant was collected by centrifugation at 3000 rpm for 10 min and evaporated to dryness at 30 °C using a CentriVap vacuum centrifugal concentrator. The resulting residue was reconstituted in 100 μL methanol, vortexed and centrifuged at 12000 rpm for 10 min. A 2 μL aliquot of the supernatant was injected for UFLC-MS/MS analysis (UFLC-MS/MS analysis method same as the pharmacokinetic study of DMAPE, see Additional method in Supplementary Materials).

KG-1a CD34+ cells = assay: KG-1a-Luc CD34+ xenograft in NOD/SCID mice, bioluminescence; type: in vivo
Procedure: Six-week-old female NOD-SCID mice (obtained from the model animal research center of Nanjing University, Nanjing, China) were acclimated for 1 week and housed in groups of five. All animal studies were conducted under the guidelines approved by the Animal Care and Use Committee of the Nanjing University of Chinese Medicine (Nanjing, China). The mice were sublethally irradiated with 2.7 Gy before transplantation.
KG-1a cells tagged with a luciferase reporter gene (KG-1a-Luc) were obtained from Cobioer biotechnology Inc. (Nanjing, Jiangsu, China) and cultured in 90% IMDM supplemented with 10% FBS, 0.05 mM 2-Mercaptoethanol, and 1 μg/mL Puromycin, and grown at 37 °C in a 5% CO2 humidified incubator. CD34 positive cells were enriched (following the 2.3 method) and injected via the tail vein in a final volume of 0.2 mL PBS with 0.5% FBS. For analyzing the luciferase signal, 5 × 10^6 cells KG-1a-Luc cells were used for each recipient animal. Seven days after transplantation, mice with KG-1a-Luc implants were subjected to bioluminescent analysis based on the luciferase signal. Briefly, mice received D-luciferin phosphate solution (100 mg/kg) intravenously 10 min prior to imaging. They were then anesthetized with isoflurane inhalation and imaged using a Xenogen IVIS scanner (PerkinElmer, Waltham, MA, USA). The next day, mice showing successful implantations were randomly divided into the control, DMAPE low dose, DMAPE high dose, and Ara-C treatment groups (n = 5 in each group), which received daily i. g. saline buffer, DMAPE phosphate salt 25 mg/kg, DMAPE phosphate salt 50 mg/kg and Ara-C (50 mg/kg), respectively. The growth of KG-1a-Luc cells was monitored every week by their luciferase signal. Five weeks after the implantation, all mice were sacrificed and their livers, kidneys, and bone marrow were excised for ex vivo bioluminescent imaging. The bioluminescent signal intensity was all quantified using the Living Image software (version 4.2, Carliper Life Science, Inc., Hopkinton, MA, USA) and is presented as photons/second/cm^2/sr (sr denotes steradian).

[2] = design: method as in earlier work; conditions: formulated with phosphate acid; cited from earlier work
GSS = molecular target: T1, GSS (Homo sapiens, UniProt P48637); assay: BLI binding assay, GSS
T1 construct: purchased Abcam
T1 sequence (P48637 1-474): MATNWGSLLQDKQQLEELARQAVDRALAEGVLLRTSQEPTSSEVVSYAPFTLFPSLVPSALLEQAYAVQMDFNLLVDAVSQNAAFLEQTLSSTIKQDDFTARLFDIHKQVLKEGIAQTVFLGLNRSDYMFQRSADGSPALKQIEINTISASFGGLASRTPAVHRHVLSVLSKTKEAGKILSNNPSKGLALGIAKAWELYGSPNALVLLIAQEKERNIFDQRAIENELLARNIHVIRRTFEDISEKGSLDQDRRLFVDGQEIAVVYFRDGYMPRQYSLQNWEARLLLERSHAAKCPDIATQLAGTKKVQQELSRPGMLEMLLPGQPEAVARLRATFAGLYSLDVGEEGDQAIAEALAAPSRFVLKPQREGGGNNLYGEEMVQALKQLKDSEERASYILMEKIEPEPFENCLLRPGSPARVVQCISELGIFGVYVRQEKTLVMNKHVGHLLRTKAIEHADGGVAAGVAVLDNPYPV
Procedure: The binding kinetics of PepE or PepA to purified recombinant proteins were determined using BLI on an Octet RED 96 system (ForteBio, Shanghai, China) following the manufacturer's protocol. All interaction analyses were performed at 25 °C in PBS with 0.2% DMSO. Purified recombinant proteins (0.9 μM, the TrxR1 full length and TrxR1 protein fragment were pre-reduced by 400 μM of NADPH before test) were pre-labeled with biotin using […] (Abcam) following the manufacturer's instruction. Loading of the Dip and Read Super Streptavidin (SSA) Biosensors (ForteBio) were conducted by exposing biotinylated proteins to biosensor tips for 2 h. The 96-well microplates used in the Octet were filled with 200 μL sample or buffer per well and agitated at 1000 rpm. The loaded biosensors were washed in buffer for 600 s and transferred to wells containing PepE at concentrations of 0.625, 1.25, 2.5, 5, and 10 μM or PepA at concentrations of 1.25, 2.5, 5, 10 and 20 μM, respectively, in the buffer. […] Reference measurements were conducted using the buffer instead of PepE (or PepA). A parallel set of SA unloaded biosensors was prepared to act as a control. The sample-sensorgrams were corrected by subtracting the double reference curve. Kinetic parameters (Kon and Kdis) and affinity (KD) were determined from a global fit to a 1:1 binding model of the data between proteins and PepE using Octet software (ForteBio).

[3] = system: Trx-ASK1 complex in KG-1a CD34+ cells; assay: Trx1 immunoprecipitation, Trx-ASK1 interaction; type: cell-based, human; conditions: 0.5, 2.0, 5.0 μM
Procedure: The KG-1a CD34^+ cells were treated with PepE or vehicle control (DMSO) for 12 h. The cellular proteins were extracted by RIPA buffer and quantified by the Bradford method. For each cell lysate, a volume containing 1 mg protein was mixed with 1 μg anti-Trx1 antibody coupled to 20 μL protein G-Sepharose (Abcam) and tumbled at 4 °C for 2 h. The Sepharose beads were then washed three times at 4 °C with a washing buffer containing 50 mM Tris (pH = 7.4), 0.5 M NaCl, and 1 mM EGTA. The immunoprecipitated proteins were eluted and denatured by 2×SDS-PAGE loading buffer and then boiled for 5 min. The eluted solutions were then centrifuged at 12000 g; the supernatants were collected and stored at −20 °C for SDS-PAGE and western blot analyses.

Structure (SMILES) | DMAPE remained in the culture media [1] | growth and metastasis of AML CD34+ cells in NOD/SCID mice (KG-1a CD34+ cells; 25 mg/kg/d) | luciferase signal in the bone marrow (KG-1a CD34+ cells; 50 mg/kg i.g. daily, week 5, ex vivo imaging) | overall luciferase signal in the liver and kidney, saline vs treated (KG-1a CD34+ cells; 50 mg/kg i.g. daily, week 5, P < 0.001 kidneys, P < 0.01 livers) | luciferase signal intensities compared to the saline-treated mice (KG-1a CD34+ cells; 25 and 50 mg/kg i.g. daily, P < 0.05 at three weeks, P < 0.01 at five weeks) | increased solubility in water compared to PepE [2] | Kd (GSS) [µM] | kon (GSS) [M⁻¹ s⁻¹] | koff (GSS; read-out: Kdis) [s⁻¹] | amount of ASK1 bound to Trx1 [3]
COc1cc(C(c2cc(OC)c3c(c2)OCO3)[C@@H]2COC(=O)[C@H]2CN(C)CCO)cc2c1OCO2 [DMAPE, (2S,3S)-6-Methyl (hydroxyethyl) amino-2,6-dihydropeperomin E] | about half | significantly suppressed | almost no luciferase signal was detected | significantly stronger in the saline-treated group | significantly weaker | more than 1000 fold | – | – | – | –
C=C1C(=O)OC[C@H]1C(c1cc(OC)c2c(c1)OCO2)c1cc(OC)c2c(c1)OCO2 [PepE, Peperomin E] | – | – | – | – | – | – | 272 | 2740 | 0.745 | dose-dependent decrease
